# Reference: patent publication US20250262201A1, “COMPOUNDS AND METHODS USEFUL FOR STABILIZING PHENYLALANINE HYDROXYLASE MUTATIONS” (Agios Pharmaceuticals, Inc., priority 2022, published 2025)
# Counter-ions that a name gives are not always drawn.
# Biological target: T1, human PAH with the R408W mutation (Homo sapiens, UniProt P00439, R408W)
# T1 construct: expressed in transfected cells
# T1 sequence (P00439 1-452 R408W): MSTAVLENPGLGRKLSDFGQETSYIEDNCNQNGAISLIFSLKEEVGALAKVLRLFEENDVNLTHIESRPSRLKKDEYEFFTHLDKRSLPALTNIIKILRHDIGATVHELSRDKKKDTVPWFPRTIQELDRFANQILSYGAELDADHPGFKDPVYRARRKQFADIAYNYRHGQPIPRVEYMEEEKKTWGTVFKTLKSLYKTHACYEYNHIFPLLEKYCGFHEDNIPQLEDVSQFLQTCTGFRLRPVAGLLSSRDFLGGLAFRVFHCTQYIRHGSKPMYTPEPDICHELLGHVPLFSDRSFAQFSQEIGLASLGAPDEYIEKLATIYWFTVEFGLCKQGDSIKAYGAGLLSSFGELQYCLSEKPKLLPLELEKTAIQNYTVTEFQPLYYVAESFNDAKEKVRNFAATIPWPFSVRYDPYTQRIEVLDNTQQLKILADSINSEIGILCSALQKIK
# Test: Cell Based Phenylalanine Flux Assay
# Settings: A375 cells expressing human R408W PAH; 24 hrs compound incubation; 13C-Tyrosine by LC-MS; average where tested multiple times; read-out: AC50
row,Compound,AC50 [µM]
1,"O=C(c1ocnc1-c1ccccn1)N1CCc2[nH]cnc2[C@H]1c1cc2ccccc2cn1 [Example 354, (R)-(4-(isoquinolin-3-yl)-6,7-dihydro-1H-imidazo[4,5-c]pyridin-5(4H)-yl)(4-(pyridin-2-yl)oxazol-5-yl)methanone]",< 0.5
2,"O=C(c1cnn2c(Br)cccc12)N1CCc2[nH]cnc2[C@H]1c1cc2ccccc2cn1 [Example 355, (R)-(7-bromopyrazolo[1,5-a]pyridin-3-yl)(4-(isoquinolin-3-yl)-6,7-dihydro-1H-imidazo[4,5-c]pyridin-5(4H)-yl)methanone]",< 0.5
3,"O=C(c1cnn2ccc(Br)cc12)N1CCc2[nH]cnc2[C@H]1c1cc2ccccc2cn1 [Example 356, (R)-(5-bromopyrazolo[1,5-a]pyridin-3-yl)(4-(isoquinolin-3-yl)-6,7-dihydro-1H-imidazo[4,5-c]pyridin-5(4H)-yl)methanone]",< 0.5
4,"O=C(c1cnn2cccc(F)c12)N1CCc2[nH]cnc2[C@H]1c1cc2ccccc2cn1 [Example 357, (R)-(4-fluoropyrazolo[1,5-a]pyridin-3-yl)(4-(isoquinolin-3-yl)-6,7-dihydro-1H-imidazo[4,5-c]pyridin-5(4H)-yl)methanone]",< 0.5
5,"O=C(c1nsc2ccccc12)N1CCc2[nH]cnc2[C@H]1c1cc2ccccc2cn1 [Example 358, (R)-benzo[d]isothiazol-3-yl(4-(isoquinolin-3-yl)-6,7-dihydro-1H-imidazo[4,5-c]pyridin-5(4H)-yl)methanone]",< 0.5
6,"O=C(c1n[nH]c2ccccc12)N1CCc2[nH]cnc2[C@H]1c1cc2ccccc2cn1 [Example 359, (3a,7a-dihydro-1H-indazol-3-yl)((R)-4-(isoquinolin-3-yl)-6,7-dihydro-1H-imidazo[4,5-c]pyridin-5(4H)-yl)methanone]",< 0.5
7,"Cn1nc(C(=O)N2CCc3[nH]cnc3[C@H]2c2cc3ccccc3cn2)c2ccccc21 [Example 360, (R)-(4-(isoquinolin-3-yl)-6,7-dihydro-1H-imidazo[4,5-c]pyridin-5(4H)-yl)(1-methyl-1H-indazol-3-yl)methanone]",< 0.5
8,"Cc1nnc(C(=O)N2CCc3[nH]cnc3[C@H]2c2cc3ccccc3cn2)s1 [Example 361, (R)-(4-(isoquinolin-3-yl)-6,7-dihydro-1H-imidazo[4,5-c]pyridin-5(4H)-yl)(5-methyl-1,3,4-thiadiazol-2-yl)methanone]",0.5 to 1
9,"O=C(c1ccn2ncccc12)N1CCc2[nH]cnc2[C@H]1c1cc2ccccc2cn1 [Example 362, (R)-(4-(isoquinolin-3-yl)-6,7-dihydro-1H-imidazo[4,5-c]pyridin-5(4H)-yl)(pyrrolo[1,2-b]pyridazin-5-yl)methanone]",< 0.5
10,"CN(C)C(=O)c1nnc(N2CCc3[nH]cnc3[C@H]2c2cc3ccccc3cn2)o1 [Example 363, (R)-5-(4-(isoquinolin-3-yl)-6,7-dihydro-1H-imidazo[4,5-c]pyridin-5(4H)-yl)-N,N-dimethyl-1,3,4-oxadiazole-2-carboxamide]",0.5 to 1
11,"O=C(c1nnc(-c2ccccc2)s1)N1CCc2[nH]cnc2[C@H]1c1cc2ccccc2cn1 [Example 364, (R)-(4-(isoquinolin-3-yl)-6,7-dihydro-1H-imidazo[4,5-c]pyridin-5(4H)-yl)(5-phenyl-1,3,4-thiadiazol-2-yl)methanone]",< 0.5
12,"c1ccc(-c2nnc(N3CCc4[nH]cnc4[C@H]3c3cc4ccccc4cn3)o2)nc1 [Example 365, (R)-2-(4-(isoquinolin-3-yl)-6,7-dihydro-1H-imidazo[4,5-c]pyridin-5(4H)-yl)-5-(pyridin-2-yl)-1,3,4-oxadiazole]",0.5 to 1
13,"CN(C)c1nnc(C(=O)N2CCc3[nH]cnc3[C@H]2c2cc3ccccc3cn2)o1 [Example 366, (R)-(5-(dimethylamino)-1,3,4-oxadiazol-2-yl)(4-(isoquinolin-3-yl)-6,7-dihydro-1H-imidazo[4,5-c]pyridin-5(4H)-yl)methanone]",< 0.5
14,"CN(C)c1nnc(C(=O)N2CCc3[nH]cnc3[C@@H]2c2cc3ccccc3cn2)o1 [Example 367, (S)-(5-(dimethylamino)-1,3,4-oxadiazol-2-yl)(4-(isoquinolin-3-yl)-6,7-dihydro-1H-imidazo[4,5-c]pyridin-5(4H)-yl)methanone]",> 5
15,"O=C(Cc1nc(C(F)(F)F)cs1)N1CCc2[nH]cnc2[C@H]1c1cc2ccccc2cn1 [Example 368, (R)-1-(4-(isoquinolin-3-yl)-6,7-dihydro-1H-imidazo[4,5-c]pyridin-5(4H)-yl)-2-(4-(trifluoromethyl)thiazol-2-yl)ethanone]",< 0.5
16,"O=C(Cn1cncn1)N1CCc2[nH]cnc2[C@H]1c1cc2ccccc2cn1 [Example 369, (R)-1-(4-(isoquinolin-3-yl)-6,7-dihydro-1H-imidazo[4,5-c]pyridin-5(4H)-yl)-2-(1H-1,2,4-triazol-1-yl)ethanone]",0.5 to 1
17,"O=C(c1nnc(NC2CC2)o1)N1CCc2[nH]cnc2[C@H]1c1cc2ccccc2cn1 [Example 370, (R)-(5-(cyclopropylamino)-1,3,4-oxadiazol-2-yl)(4-(isoquinolin-3-yl)-6,7-dihydro-1H-imidazo[4,5-c]pyridin-5(4H)-yl)methanone]",0.5 to 1
18,"O=C(c1nnc(NC2CC2)o1)N1CCc2[nH]cnc2[C@@H]1c1cc2ccccc2cn1 [Example 371, (S)-(5-(cyclopropylamino)-1,3,4-oxadiazol-2-yl)(4-(isoquinolin-3-yl)-6,7-dihydro-1H-imidazo[4,5-c]pyridin-5(4H)-yl)methanone]",> 5
19,"Cc1ncc(CC(=O)N2CCc3[nH]cnc3[C@H]2c2cc3ccccc3cn2)o1 [Example 372, (R)-1-(4-(isoquinolin-3-yl)-6,7-dihydro-1H-imidazo[4,5-c]pyridin-5(4H)-yl)-2-(2-methyloxazol-5-yl)ethanone]",< 0.5
20,"O=C(Cc1cncs1)N1CCc2[nH]cnc2[C@H]1c1cc2ccccc2cn1 [Example 373, (R)-1-(4-(isoquinolin-3-yl)-6,7-dihydro-1H-imidazo[4,5-c]pyridin-5(4H)-yl)-2-(thiazol-5-yl)ethanone]",< 0.5
21,"O=C(Cc1ccccn1)N1CCc2[nH]cnc2[C@H]1c1cc2ccccc2cn1 [Example 374, (R)-1-(4-(isoquinolin-3-yl)-6,7-dihydro-1H-imidazo[4,5-c]pyridin-5(4H)-yl)-2-(pyridin-2-yl)ethanone]",< 0.5
22,"O=C(Cc1cnn2ccccc12)N1CCc2[nH]cnc2[C@H]1c1cc2ccccc2cn1 [Example 375, (R)-1-(4-(isoquinolin-3-yl)-6,7-dihydro-1H-imidazo[4,5-c]pyridin-5(4H)-yl)-2-(pyrazolo[1,5-a]pyridin-3-yl)ethanone]",< 0.5
23,"CC(F)(F)c1ncc(C(=O)N2CCc3[nH]cnc3[C@H]2c2cc3ccccc3cn2)s1 [Example 376, (R)-(2-(1,1-difluoroethyl)thiazol-5-yl)(4-(isoquinolin-3-yl)-6,7-dihydro-1H-imidazo[4,5-c]pyridin-5(4H)-yl)methanone hydrochloride]",< 0.5
24,"O=C(c1oc(-c2ccccn2)nc1C1CC1)N1CCc2[nH]cnc2[C@H]1c1cc2ccccc2cn1 [Example 377, (R)-(4-cyclopropyl-2-(pyridin-2-yl)oxazol-5-yl)(4-(isoquinolin-3-yl)-6,7-dihydro-1H-imidazo[4,5-c]pyridin-5(4H)-yl)methanone]",< 0.5
